From patent publication US20180099931A1 (AbbVie S.à.r.l., priority 2016, published 2018)
Like-named read-outs stand apart in the source and are kept apart here.

Target: T1, F508delCFTR (Homo sapiens, UniProt P13569, DEL508-508)
T1 construct: expressed in transfected cells; host or cells: CFBE41o- human lung-derived epithelial cells (CFBE4lo-F508delCFTR-HRP), doxycycline-inducible
Test: Cell Surface Expression-Horse Radish Peroxidase (CSE-HRP) Assay;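 on Maximum % activity (with co-corrector): co-corrector and positive control are both the same reference corrector at 2 µM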;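 on Maximum % activity (without co-corrector): percent of the 2 µM on-plate positive control corrector response above DMSO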
Format: cell-based
Conditions: for Maximum % activity (with co-corrector) / Emax: maximum at any tested concentration, normalized to on-plate positive control; for Emax: read-out: Maximum % activity (without co-corrector)
Protocol: Cell Surface Expression-Horse Radish Peroxidase (CSE-HRP) Assay;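 on Maximum % activity (with co-corrector): co-corrector and positive control are both the same reference corrector at 2 µM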;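 on Maximum % activity (without co-corrector): percent of the 2 µM on-plate positive control corrector response above DMSO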
The development was achieved by expressing the F508delCFTR mutation along with a horseradish peroxidase (HRP) in the fourth exofacial loop, and then measuring the HRP activity using luminescence readout from these cells, CFBE4lo-F508delCFTR-HRP, that were incubated overnight with the test corrector compounds, either without or with the co-corrector. […] The test compounds were then added either without or with a co-corrector at the required concentrations and further incubated for 18-24 hours at 33° C. The highest concentration tested was 20 μM with an 8-point concentration response curve using a 3-fold dilution in both the test compound without or with the co-corrector. Three replicate plates were run to determine one EC50. All plates contained negative controls (dimethyl sulfoxide, DMSO) and positive control (2 μM of 3-[(2R,4R)-4-({[1-(2,2-difluoro-1,3-benzodioxol-5-yl)cyclopropyl]carbonyl}amino)-7-methoxy-3,4-dihydro-2H-chromen-2-yl]benzoic acid) as well as on-plate concentration response of the positive control. […] The raw counts from the experiment were analyzed using Accelrys® Assay Explorer v3.3.
1−[3*SDPositive Control+3*SDNegative Control/Absolute(MeanPositive Control−MeanNegative Control)]
wherein “SD” is standard deviation.
The % activity measured at each of the 8 test concentrations of the test compound added either without or with a co-corrector (2 μM of 3-[(2R,4R)-4-({[1-(2,2-difluoro-1,3-benzodioxol-5-yl)cyclopropyl]carbonyl}amino)-7-methoxy-3,4-dihydro-2H-chromen-2-yl]benzoic acid) was normalized to the on-plate positive control using the following formulae:
% activity(Test compound without co-corrector)=[(test compound without co-corrector response−DMSO response)/(positive control response−DMSO response)]*100
% activity(Test compound with co-corrector)=[(test compound with co-corrector response−DMSO response)/(positive control response−DMSO response)]*100
The maximum % activity achieved for the test compound either without or with a co-corrector at any tested concentration is presented in Table 4 along with the respective EC50's calculated using the following general sigmoidal curve with variable Hill slope equation (described as Model 42 in the Accelrys® Assay Explorer v3.3 software):
General sigmoidal curve with concentration, response, top, bottom, EC50 and Hill slope. This model describes a sigmoidal curve with an adjustable baseline, a. The equation can be used to fit curves where response is either increasing or decreasing with respect to the independent variable, “x”.
“x” is a concentration of drug under test. “y” is the response. “a” is the maximum response, and “d” is the minimum response “c” is the inflection point (EC50) for the curve. That is, “y” is halfway between the lower and upper asymptotes when x=c. “b” is the slope-factor or Hill coefficient. The sign of b is positive when the response increases with increasing dose and is negative when the response decreases with increasing dose (inhibition).

[1] = test compound without co-corrector, read-out: EC50 (without co-corrector)
[2] = with co-corrector (2 μM of 3-[(2R,4R)-4-({[1-(2,2-difluoro-1,3-benzodioxol-5-yl)cyclopropyl]carbonyl}amino)-7-methoxy-3,4-dihydro-2H-chromen-2-yl]benzoic acid), read-out: EC50 (with co-corrector)
[3] = test compound without co-corrector
[4] = with co-corrector (2 μM of 3-[(2R,4R)-4-({[1-(2,2-difluoro-1,3-benzodioxol-5-yl)cyclopropyl]carbonyl}amino)-7-methoxy-3,4-dihydro-2H-chromen-2-yl]benzoic acid)
[5] = CSE-HRP, test compound without co-corrector, read-out: EC50 (without co-corrector)
[6] = CSE-HRP, with co-corrector (2 μM of 3-[(2R,4R)-4-({[1-(2,2-difluoro-1,3-benzodioxol-5-yl)cyclopropyl]carbonyl}amino)-7-methoxy-3,4-dihydro-2H-chromen-2-yl]benzoic acid), read-out: EC50 (with co-corrector)
[7] = CSE-HRP, with co-corrector (2 μM)

T1 sequence (P13569 with tags, fused parts or gaps DEL508-508): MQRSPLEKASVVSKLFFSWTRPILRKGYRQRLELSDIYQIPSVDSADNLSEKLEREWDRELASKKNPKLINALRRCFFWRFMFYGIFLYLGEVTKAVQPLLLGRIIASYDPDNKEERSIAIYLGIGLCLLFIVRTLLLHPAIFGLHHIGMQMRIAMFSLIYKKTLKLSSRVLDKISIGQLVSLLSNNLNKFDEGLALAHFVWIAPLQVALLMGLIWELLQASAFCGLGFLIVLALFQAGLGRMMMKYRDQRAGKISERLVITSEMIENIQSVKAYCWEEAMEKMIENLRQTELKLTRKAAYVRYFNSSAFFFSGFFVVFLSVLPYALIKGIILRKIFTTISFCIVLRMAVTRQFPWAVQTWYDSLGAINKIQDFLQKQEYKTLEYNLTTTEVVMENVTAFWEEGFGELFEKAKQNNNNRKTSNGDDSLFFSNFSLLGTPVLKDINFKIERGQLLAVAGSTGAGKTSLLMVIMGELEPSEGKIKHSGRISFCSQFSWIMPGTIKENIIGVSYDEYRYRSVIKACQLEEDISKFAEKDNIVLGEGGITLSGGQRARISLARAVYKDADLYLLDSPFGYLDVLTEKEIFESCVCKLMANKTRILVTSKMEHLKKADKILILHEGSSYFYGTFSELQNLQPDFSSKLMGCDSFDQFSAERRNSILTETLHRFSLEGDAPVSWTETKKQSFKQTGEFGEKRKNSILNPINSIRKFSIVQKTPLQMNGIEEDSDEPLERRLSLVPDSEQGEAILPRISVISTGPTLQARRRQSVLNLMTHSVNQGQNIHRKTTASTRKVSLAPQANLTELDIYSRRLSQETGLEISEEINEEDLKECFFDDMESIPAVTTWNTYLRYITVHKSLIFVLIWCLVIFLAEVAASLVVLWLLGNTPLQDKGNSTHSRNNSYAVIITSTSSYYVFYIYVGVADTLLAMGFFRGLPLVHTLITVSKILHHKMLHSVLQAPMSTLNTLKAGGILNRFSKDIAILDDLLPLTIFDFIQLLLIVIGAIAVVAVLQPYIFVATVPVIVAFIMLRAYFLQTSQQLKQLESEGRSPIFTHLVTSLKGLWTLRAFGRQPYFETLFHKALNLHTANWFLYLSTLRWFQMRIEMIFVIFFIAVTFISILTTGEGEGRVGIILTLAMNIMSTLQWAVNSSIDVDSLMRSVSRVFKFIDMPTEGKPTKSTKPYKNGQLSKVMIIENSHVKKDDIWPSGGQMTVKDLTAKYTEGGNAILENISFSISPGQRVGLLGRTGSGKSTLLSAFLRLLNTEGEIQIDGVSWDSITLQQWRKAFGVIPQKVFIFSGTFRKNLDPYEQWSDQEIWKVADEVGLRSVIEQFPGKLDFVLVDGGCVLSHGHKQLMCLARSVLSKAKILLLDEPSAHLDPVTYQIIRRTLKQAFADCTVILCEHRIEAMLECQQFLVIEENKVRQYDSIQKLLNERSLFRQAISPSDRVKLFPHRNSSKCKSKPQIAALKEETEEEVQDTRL

| EC50 [1] | EC50 [2] | Maximum % activity (with co-corrector) (with co-corrector (2 μM)) | Emax (without co-corrector) | Emax [3] | Maximum % activity (with co-corrector) [4] | EC50 [5] | EC50 [6] | Maximum % activity (with co-corrector) [7] | Emax (CSE-HRP, without co-corrector) | Structure (SMILES) |
| --- | --- | --- | --- | --- | --- | --- | --- | --- | --- | --- |
| 1 to 10 µM | < 1 µM | +++ (≥350) | > 200% |  |  |  |  |  |  | COc1ccc(C(C)(C)C)cc1CN[C@H]1[C@H](C(C)(C)C)[C@@H](C(=O)O)N(C(=O)[C@H]2COc3ccccc3O2)[C@H]1c1ccccc1 [Example I-167] |
| < 1 µM | < 1 µM | +++ (≥350) | 100 to 200% |  |  |  |  |  |  | COc1ncc(Cc2ccccc2)cc1CN[C@H]1[C@H](C(C)(C)C)[C@@H](C(=O)O)N(C(=O)C2CCCCC2)[C@H]1c1ccccc1 [Example I-69] |
| > 10 µM | 1 to 10 µM |  |  | < 100% | ++ (≥150 and <350) |  |  |  |  | COc1cccc([C@H]2[C@@H](Nc3cccc(OC(F)F)n3)[C@H](C(C)(C)C)[C@@H](C(=O)O)N2C(=O)C2(C)CCCOC2)n1 (mixture of isomers) [III-76] |
| 1 to 10 µM | 1 to 10 µM |  |  | 100 to 200% | +++ (≥350) |  |  |  |  | COc1ccc(C(C)(C)C)cc1CN[C@H]1[C@H](C(C)(C)C)[C@@H](C(=O)O)N(C(=O)C23CC(F)(C2)C3)[C@H]1c1ccccc1 [II-498] |
| < 1 µM | < 1 µM | +++ (≥350) | 100 to 200% |  |  |  |  |  |  | COc1ncc(C(F)(F)F)cc1CN[C@H]1[C@H](C(C)(C)C)[C@@H](C(=O)O)N(C(=O)C2CCCCC2)[C@H]1c1ccc(F)cc1 [Example 26, (2S,3S,4S,5S)-3-tert-butyl-1-(cyclohexanecarbonyl)-5-(4-fluorophenyl)-4-({[2-methoxy-5-(trifluoromethyl)pyridin-3-yl]methyl}amino)pyrrolidine-2-carboxylic acid] |
| > 10 µM | > 10 µM |  |  | < 100% | + (<150) |  |  |  |  | CC(C)(C)[C@@H]1[C@@H](Nc2cc(C(F)(F)F)cc(=O)[nH]2)[C@@H](c2ccccc2)N(C(=O)C2CCCCC2)[C@H]1C(=O)O (racemic) [III-23] |
| 1 to 10 µM | 1 to 10 µM | ++ (≥150 and <350) | < 100% |  |  |  |  |  |  | Cc1cc(C(F)(F)F)cc(N[C@H]2[C@H](C(C)(C)C)[C@@H](C(=O)O)N(C(=O)C3C4CCCC43)[C@H]2c2cccnc2N(C)C)n1 (stereo partly drawn) [Example I-222] |
| < 1 µM | < 1 µM |  |  | 100 to 200% | +++ (≥350) |  |  |  |  | COc1nc(C(C)(C)C)ccc1CN[C@H]1[C@H](C(C)(C)C)[C@@H](C(=O)O)N(C(=O)[C@H](OC)c2ccccc2)[C@H]1c1ccccc1 [II-433] |
| 1 to 10 µM | < 1 µM | +++ (≥350) | > 200% |  |  |  |  |  |  | COc1ncc(C2CCC2)cc1CN[C@H]1[C@H](C(C)(C)C)[C@@H](C(=O)O)N(C(=O)[C@@H]2CCCO2)[C@H]1c1ccccc1C1CC1 [Example 107, (2S,3S,4S,5S)-3-tert-butyl-4-{[(5-cyclobutyl-2-methoxypyridin-3-yl)methyl]amino}-5-(2-cyclopropylphenyl)-1-[(2S)-oxolane-2-carbonyl]pyrrolidine-2-carboxylic acid] |
|  |  |  |  |  |  | > 10 µM | 1 to 10 µM | ++ (≥150 and <350) | < 100% | CC(C)(C)[C@H]1[C@H](NCc2cc(F)cc(F)c2)[C@H](c2ccccc2)N(C(=O)C2CCCCC2)[C@@H]1C(=O)O [II-115] |
| 1 to 10 µM | 1 to 10 µM |  |  | > 200% | +++ (≥350) |  |  |  |  | COc1ncc(-c2cccc(F)c2F)cc1CN[C@H]1[C@H](C(C)(C)C)[C@@H](C(=O)O)N(C(=O)C2CCCCC2)[C@H]1c1ccccc1 [II-346] |
|  |  |  |  |  |  | 1 to 10 µM | 1 to 10 µM | +++ (≥350) | 100 to 200% | COc1cc(C(F)(F)F)ccc1CN[C@H]1[C@H](C(C)(C)C)[C@@H](C(=O)O)N(C(=O)[C@H](OC)c2ccccc2)[C@H]1c1cccnc1OC [II-84] |
| 1 to 10 µM | < 1 µM |  |  | > 200% | +++ (≥350) |  |  |  |  | COc1ccc(C(C)(C)C)cc1CN[C@H]1[C@H](C(C)(C)C)[C@@H](C(=O)O)N(C(=O)OC(C)C)[C@H]1c1ccccc1C [II-582] |
| 1 to 10 µM | 1 to 10 µM |  |  | > 200% | +++ (≥350) |  |  |  |  | COc1cc(C(F)(F)F)ccc1CN[C@H]1[C@H](C(C)(C)C)[C@@H](C(=O)O)N(C(=O)[C@H]2CCC[C@H](OC)C2)[C@H]1c1ccccc1 [II-571] |
|  |  |  |  |  |  | 1 to 10 µM | 1 to 10 µM | +++ (≥350) | 100 to 200% | COc1cc(C(F)(F)F)ccc1CN[C@@H]1[C@@H](C(C)(C)C)[C@H](C(=O)O)N(C(=O)C(C)c2ccccc2)[C@@H]1c1ccccc1 (single isomer, unassigned) [II-80] |
| 1 to 10 µM | < 1 µM | +++ (≥350) | > 200% |  |  |  |  |  |  | COc1ccc(-c2ccccc2)cc1CN[C@H]1[C@H](C(C)(C)C)[C@@H](C(=O)O)N(C(=O)[C@@H]2CCC[C@@H](OC)C2)[C@H]1c1ccccc1 [Example I-78] |
| 1 to 10 µM | 1 to 10 µM | +++ (≥350) | 100 to 200% |  |  |  |  |  |  | COc1ccc(C(C)(C)C)cc1CN[C@H]1[C@H](C23CC(C2)C3)[C@@H](C(=O)O)N(C(=O)OC(C)C)[C@H]1c1cccnc1OC [Example 76, (2S,3S,4S,5S)-3-(bicyclo[1.1.1]pentan-1-yl)-4-{[(5-tert-butyl-2-methoxyphenyl)methyl]amino}-5-(2-methoxypyridin-3-yl)-1-{[(propan-2-yl)oxy]carbonyl}pyrrolidine-2-carboxylic acid] |
| > 10 µM | > 10 µM | + (<150) |  | < 100% |  |  |  |  |  | CC(C)(C)[C@H]1[C@H](Nc2ccc(Cn3ccccc3=O)cn2)[C@H](c2ccccc2)N(C(=O)C2CCCCC2)[C@@H]1C(=O)O [III-153] |
|  |  |  |  |  |  | 1 to 10 µM | 1 to 10 µM | +++ (≥350) | 100 to 200% | COc1ccc(C(C)(C)C)cc1CN[C@H]1[C@H](C(C)(C)C)[C@@H](C(=O)O)N(C(=O)CC2CCOCC2)[C@H]1c1ccccc1 [II-162] |
|  |  |  |  |  |  | 1 to 10 µM |  | ++ (≥150 and <350) |  | COc1cc(C(F)(F)F)ccc1CN[C@@H]1[C@@H](C(C)(C)C)[C@H](C(=O)O)N(C(=O)C(C)Oc2ccccc2)[C@@H]1c1ccccc1 (single isomer, unassigned) [II-67] |
| > 10 µM | 1 to 10 µM | ++ (≥150 and <350) | < 100% |  |  |  |  |  |  | COc1ccc(OC(F)F)c(CN[C@@H]2[C@@H](C(C)(C)C)[C@H](C(=O)O)N(C(=O)C3CCCCC3)[C@@H]2c2ccccc2)c1 (racemic) [Example I-14] |
| 1 to 10 µM | 1 to 10 µM | ++ (≥150 and <350) |  | < 100% |  |  |  |  |  | Cc1ccc(CN[C@H]2[C@H](C(C)(C)C)[C@@H](C(=O)O)N(C(=O)C3CCCCC3)[C@H]2c2ccccc2)cc1C [III-134] |
| < 1 µM | < 1 µM |  |  | 100 to 200% | +++ (≥350) |  |  |  |  | COc1ncc(C2(C)CC2(F)F)cc1CN[C@H]1[C@H](C(C)(C)C)[C@@H](C(=O)O)N(C(=O)C2CCCCC2)[C@H]1c1ccccc1 (stereo partly drawn) [II-422] |
